Measured values as given in patent publication US8729082B2, “Substituted imidazoquinoxalines” (Bayer Intellectual Property GmbH, priority 2009, dated 2014).

Target: T1, human kinase Mps-1 (Homo sapiens, UniProt P33981)
T1 construct: N-terminally GST-tagged human full length recombinant Mps-1 kinase; purchased Invitrogen, Karslruhe, Germany PV4071
T1 sequence (P33981 1-857): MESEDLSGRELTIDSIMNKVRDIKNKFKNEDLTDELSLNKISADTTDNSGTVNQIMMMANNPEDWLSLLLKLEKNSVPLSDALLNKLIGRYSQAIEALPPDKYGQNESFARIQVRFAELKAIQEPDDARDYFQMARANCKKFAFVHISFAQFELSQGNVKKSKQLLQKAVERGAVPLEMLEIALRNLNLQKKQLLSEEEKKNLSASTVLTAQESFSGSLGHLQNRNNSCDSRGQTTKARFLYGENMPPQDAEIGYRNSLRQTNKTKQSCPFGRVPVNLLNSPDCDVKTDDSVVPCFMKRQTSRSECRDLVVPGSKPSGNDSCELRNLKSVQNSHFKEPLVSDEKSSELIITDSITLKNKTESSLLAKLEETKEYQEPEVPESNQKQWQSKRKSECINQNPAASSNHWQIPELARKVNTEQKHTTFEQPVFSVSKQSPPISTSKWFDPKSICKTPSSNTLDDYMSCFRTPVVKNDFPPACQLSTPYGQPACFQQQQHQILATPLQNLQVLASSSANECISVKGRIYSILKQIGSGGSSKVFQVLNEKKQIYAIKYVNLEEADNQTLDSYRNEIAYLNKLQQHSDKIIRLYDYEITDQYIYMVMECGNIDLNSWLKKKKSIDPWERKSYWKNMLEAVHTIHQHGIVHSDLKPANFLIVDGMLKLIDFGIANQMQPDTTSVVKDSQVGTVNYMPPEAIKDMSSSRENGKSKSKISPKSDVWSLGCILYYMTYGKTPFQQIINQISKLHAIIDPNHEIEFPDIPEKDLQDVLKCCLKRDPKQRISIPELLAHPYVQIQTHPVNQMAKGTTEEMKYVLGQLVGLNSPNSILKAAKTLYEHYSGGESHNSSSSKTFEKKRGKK
Assay: Mps-1 kinase assay (HTRF)
Type: biochemical
Conditions: lowATP; mean; read-out: Mps1 lowATP mean IC50
Outline: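 HTRF readout: EDTA-stopped reactions incubated 1 h with europium anti-phospho(Ser/Thr) antibody and streptavidin-XLent, emission ratio 665/620 nm after 350 nm excitation. Kinase step: compound pre-bound 15 min to ~1 nM GST-Mps-1, then 60 min at 22 °C with ATP and biotin-peptide substrate; inhibition scaled between no-inhibitor (0%) and no-enzyme (100%) controls.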

How did the IC50 turn out when `O=C(NC1CC1)c1ccc(-c2cnc3c(NCCN4CCNC4=O)nc4ccccc4n23)cc1` [Example 2-33, N-cyclopropyl-4-(4-{[2-(2-oxoimidazolidin-1-yl)ethyl]amino}imidazo[1,2-a]quinoxalin-1-yl)benzamide] was run?
The IC50 was 1150 nM.

With `N#Cc1ccc(CNc2nc3ccccc3n3c(-c4ccc(C(=O)NC5CC5)cc4)cnc23)cc1` [Example 2-34, 4-{4-[(4-cyanobenzyl)amino]imidazo[1,2-a]quinoxalin-1-yl}-N-cyclopropylbenzamide] as the molecule, how does the IC50 read?
Its IC50 is 287 nM.

For `O=C(NC1CC1)c1ccc(-c2cnc3c(NCCc4ccc(F)cc4)nc4ccccc4n23)cc1` [Example 2-35, N-cyclopropyl-4-(4-{[2-(4-fluorophenyl)ethyl]amino}imidazo[1,2-a]quinoxalin-1-yl)benzamide], which IC50 is on record?
Its IC50 is 539 nM.

For `O=C(NC1CC1)c1ccc(-c2cnc3c(NCCc4cccnc4)nc4ccccc4n23)cc1` [Example 2-36, N-cyclopropyl-4-(4-{[2-(pyridin-3-yl)ethyl]amino}imidazo[1,2-a]quinoxalin-1-yl)benzamide], which IC50 is on record?
Its IC50 is 129 nM.

How did the IC50 turn out when `Cn1ccc(Nc2nc3ccccc3n3c(-c4ccc(C(=O)NC5CC5)cc4)cnc23)n1` [Example 2-37, N-cyclopropyl-4-{4-[(1-methyl-1H-pyrazol-3-yl)amino]imidazo[1,2-a]quinoxalin-1-yl}benzamide] was run?
Its IC50 is 1050 nM.

With `NS(=O)(=O)CCNc1nc2ccccc2n2c(-c3ccc(C(=O)NC4CC4)cc3)cnc12` [Example 2-38, N-cyclopropyl-4-{4-[(2-sulfamoylethyl)amino]imidazo[1,2-a]quinoxalin-1-yl}benzamide] as the molecule, how does the IC50 read?
The IC50 was 42.2 nM.

With `COc1cc(C(=O)NC2CCN(C)CC2)ccc1Nc1nc2ccccc2n2c(-c3ccc(C(=O)NC4CC4)cc3)cnc12` [Example 2-39, 4-({1-[4-(cyclopropylcarbamoyl)phenyl]imidazo[1,2-a]quinoxalin-4-yl}amino)-3-methoxy-N-(1-methylpiperidin-4-yl)benzamide] as the molecule, how does the IC50 read?
Its IC50 is 786 nM.

With `CCCNc1nc2ccc(F)cc2n2c(-c3ccc(C(=O)NC4CC4)cc3)cnc12` [Example 2-40, N-cyclopropyl-4-[8-fluoro-4-(propylamino)imidazo[1,2-a]quinoxalin-1-yl]benzamide] as the molecule, how does the IC50 read?
The IC50 was 28.5 nM.

How did the IC50 turn out when `O=C(NC1CC1)c1ccc(-c2cnc3c(NCCO)nc4ccc(F)cc4n23)cc1` [Example 2-41, N-cyclopropyl-4-{8-fluoro-4-[(2-hydroxyethyl)amino]imidazo[1,2-a]quinoxalin-1-yl}benzamide] was run?
The IC50 was 212 nM.

How did the IC50 turn out when `O=C(NC1CC1)c1ccc(-c2cnc3c(NCCCN4CCOCC4)nc4ccc(F)cc4n23)cc1` [Example 2-42, N-cyclopropyl-4-(8-fluoro-4-{[3-(morpholin-4-yl)propyl]amino}imidazo[1,2-a]quinoxalin-1-yl)benzamide] was run?
Its IC50 is 335 nM.

`CC(C)CCNc1nc2ccc(F)cc2n2c(-c3ccc(C(=O)NC4CC4)cc3)cnc12` [Example 2-43, N-cyclopropyl-4-{8-fluoro-4-[(3-methylbutyl)amino]imidazo[1,2-a]quinoxalin-1-yl}benzamide] was tested. Which IC50 did it give?
Its IC50 is 35.9 nM.

`O=C(NC1CC1)c1ccc(-c2cnc3c(NCCCN4CCCC4=O)nc4ccc(F)cc4n23)cc1` [Example 2-44, N-cyclopropyl-4-(8-fluoro-4-{[3-(2-oxopyrrolidin-1-yl)propyl]amino}imidazo[1,2-a]quinoxalin-1-yl)benzamide] was tested. Which IC50 did it give?
The IC50 was 325 nM.

`COCCNc1nc2ccc(F)cc2n2c(-c3ccc(C(=O)NC4CC4)cc3)cnc12` [Example 2-45, N-cyclopropyl-4-{8-fluoro-4-[(2-methoxyethyl)amino]imidazo[1,2-a]quinoxalin-1-yl}benzamide] was tested. Which IC50 did it give?
The IC50 was 255 nM.

With `O=C(NC1CC1)c1ccc(-c2cnc3c(NCc4ccc(F)cc4)nc4ccc(F)cc4n23)cc1` [Example 2-46, N-cyclopropyl-4-{8-fluoro-4-[(4-fluorobenzyl)amino]imidazo[1,2-a]quinoxalin-1-yl}benzamide] as the molecule, how does the IC50 read?
The IC50 was 76.8 nM.

For `O=C(NC1CC1)c1ccc(-c2cnc3c(NCCCCO)nc4ccc(F)cc4n23)cc1` [Example 2-47, N-cyclopropyl-4-{8-fluoro-4-[(4-hydroxybutyl)amino]imidazo[1,2-a]quinoxalin-1-yl}benzamide], which IC50 is on record?
The IC50 was 66.4 nM.

For `O=C(NC1CC1)c1ccc(-c2cnc3c(NCc4cccs4)nc4ccc(F)cc4n23)cc1` [Example 2-48, N-cyclopropyl-4-{8-fluoro-4-[(thiophen-2-ylmethyl)amino]imidazo[1,2-a]quinoxalin-1-yl}benzamide], which IC50 is on record?
The IC50 was 40.3 nM.

For `CCNc1nc2ccc(F)cc2n2c(-c3ccc(C(=O)NC4CC4)cc3)cnc12` [Example 2-49, N-cyclopropyl-4-[4-(ethylamino)-8-fluoroimidazo[1,2-a]quinoxalin-1-yl]benzamide], which IC50 is on record?
Its IC50 is 87.6 nM.

How did the IC50 turn out when `O=C(NC1CC1)c1ccc(-c2cnc3c(NCCCO)nc4ccc(F)cc4n23)cc1` [Example 2-50, N-cyclopropyl-4-{8-fluoro-4-[(3-hydroxypropyl)amino]imidazo[1,2-a]quinoxalin-1-yl}benzamide] was run?
Its IC50 is 154 nM.

How did the IC50 turn out when `CCCCNc1nc2ccc(F)cc2n2c(-c3ccc(C(=O)NC4CC4)cc3)cnc12` [Example 2-51, 4-[4-(butylamino)-8-fluoroimidazo[1,2-a]quinoxalin-1-yl]-N-cyclopropylbenzamide] was run?
Its IC50 is 39.2 nM.

`O=C(NC1CC1)c1ccc(-c2cnc3c(NCC4CC4)nc4ccc(F)cc4n23)cc1` [Example 2-52, N-cyclopropyl-4-{4-[(cyclopropylmethyl)amino]-8-fluoroimidazo[1,2-a]quinoxalin-1-yl}benzamide] was tested. Which IC50 did it give?
The IC50 was 48.2 nM.

Which IC50 does the source give for `O=C(NC1CC1)c1ccc(-c2cnc3c(NCc4ccccn4)nc4ccc(F)cc4n23)cc1` [Example 2-53, N-cyclopropyl-4-{8-fluoro-4-[(pyridin-2-ylmethyl)amino]imidazo[1,2-a]quinoxalin-1-yl}benzamide] here?
The IC50 was 1050 nM.

With `O=C(NC1CC1)c1ccc(-c2cnc3c(NCc4cccnc4)nc4ccc(F)cc4n23)cc1` [Example 2-54, N-cyclopropyl-4-{8-fluoro-4-[(pyridin-3-ylmethyl)amino]imidazo[1,2-a]quinoxalin-1-yl}benzamide] as the molecule, how does the IC50 read?
The IC50 was 98.5 nM.

How did the IC50 turn out when `CC(C)CNc1nc2ccc(F)cc2n2c(-c3ccc(C(=O)NC4CC4)cc3)cnc12` [Example 2-55, N-cyclopropyl-4-{8-fluoro-4-[(2-methylpropyl)amino]imidazo[1,2-a]quinoxalin-1-yl}benzamide] was run?
Its IC50 is 28.3 nM.

`NC(=O)CCNc1nc2ccc(F)cc2n2c(-c3ccc(C(=O)NC4CC4)cc3)cnc12` [Example 2-56, 4-{4-[(3-amino-3-oxopropyl)amino]-8-fluoroimidazo[1,2-a]quinoxalin-1-yl}-N-cyclopropylbenzamide] was tested. Which IC50 did it give?
The IC50 was 378 nM.

How did the IC50 turn out when `COCCCNc1nc2ccc(F)cc2n2c(-c3ccc(C(=O)NC4CC4)cc3)cnc12` [Example 2-57, N-cyclopropyl-4-{8-fluoro-4-[(3-methoxypropyl)amino]imidazo[1,2-a]quinoxalin-1-yl}benzamide] was run?
The IC50 was 177 nM.

`Cn1cc(CNc2nc3ccc(F)cc3n3c(-c4ccc(C(=O)NC5CC5)cc4)cnc23)cn1` [Example 2-58, N-cyclopropyl-4-(8-fluoro-4-{[(1-methyl-1H-pyrazol-4-yl)methyl]amino}imidazo[1,2-a]quinoxalin-1-yl)benzamide] was tested. Which IC50 did it give?
Its IC50 is 105 nM.

`O=C(NC1CC1)c1ccc(-c2cnc3c(NCC(O)CO)nc4ccc(F)cc4n23)cc1` (stereo not shown) [Example 2-59, N-cyclopropyl-4-{4-[(2,3-dihydroxypropyl)amino]-8-fluoroimidazo[1,2-a]quinoxalin-1-yl}benzamide] was tested. Which IC50 did it give?
Its IC50 is 477 nM.

For `CNC(=O)Nc1ccc(-c2cnc3c(NCCCN4CCCC4=O)nc4ccc(F)cc4n23)cc1` [Example 2-60, 1-[4-(8-fluoro-4-{[3-(2-oxopyrrolidin-1-yl)propyl]amino}imidazo[1,2-a]quinoxalin-1-yl)phenyl]-3-methylurea], which IC50 is on record?
Its IC50 is 12800 nM.

For `CNC(=O)Nc1ccc(-c2cnc3c(NCCOC)nc4ccc(F)cc4n23)cc1` [Example 2-61, 1-(4-{8-fluoro-4-[(2-methoxyethyl)amino]imidazo[1,2-a]quinoxalin-1-yl}phenyl)-3-methylurea], which IC50 is on record?
The IC50 was 7220 nM.

For `CNC(=O)Nc1ccc(-c2cnc3c(NCc4ccccc4F)nc4ccc(F)cc4n23)cc1` [Example 2-62, 1-(4-{8-fluoro-4-[(2-fluorobenzyl)amino]imidazo[1,2-a]quinoxalin-1-yl}phenyl)-3-methylurea], which IC50 is on record?
The IC50 was 17600 nM.

For `CNC(=O)Nc1ccc(-c2cnc3c(NCCCCO)nc4ccc(F)cc4n23)cc1` [Example 2-63, 1-(4-{8-fluoro-4-[(4-hydroxybutyl)amino]imidazo[1,2-a]quinoxalin-1-yl}phenyl)-3-methylurea], which IC50 is on record?
Its IC50 is 1630 nM.
